These are literature values, as cited in paper PMC6151383 (Molecules : A Journal of Synthetic Chemistry and Natural …, 2017).

The series concerns Staphylococcus aureus, including a methicillin-resistant strain (MRSA), M. tuberculosis and Mycobacterium avium. The note with it: range over S. aureus; cited from earlier work.

`O=S(=O)(Nc1ncccn1)c1ccc(N=Cc2cc(Cl)ccc2O)cc1` [Compound 2c, 4-[(5-Chloro-2-hydroxybenzylidene)amino]-N-(pyrimidin-2-yl)benzenesulfonamide]: the MIC values was 125 to 250 µM.
